In brackets after ≈: the same amount, converted by molar mass. Activity calls are given as the source filed them. The rule behind the calls is not given here.
Assays:
HT-1080 [1] = assay: Effect on nitric oxide production in human HT1080 cells at 100 ug/ml by crystal violet coloration assay; type: functional
HT-1080 [2] = assay: Cytotoxicity against human HT1080 cells after 72 hrs; type: functional; details: for CC50: HT-1080, 72 h, read-out: TD50 (the source's name)
Mus musculus [3] = assay: Toxicity in ICR mouse assessed as body weight at 10 mg/kg, ip after 9 days; type: organism-based; set-up: dose 10 mg/kg, route intraperitoneal; details: in vivo, 216 h
CCRF S-180 [4] = assay: Antitumor activity against S180 cells inoculated in ICR mouse assessed as inhibition of tumor growth at 10 mg/kg, ip after 9 days; type: functional; details: for inhibition in vivo at 10 mg/kg: CCRF S-180, ip, 216 h, route intraperitoneal
MG-22A [5] = assay: Effect on nitric oxide production in mouse MG22A cells at 100 ug/ml by crystal violet coloration assay; type: functional
MG-22A [6] = assay: Cytotoxicity against mouse MG22A cells after 72 hrs; type: functional; details: read-out: TD50 (the source's name)
[7] = Cytotoxicity against mouse NIH3T3 cells after 72 hrs; type: cell-based; details: read-out: TD50
HT-1080 [8] = assay: Effect on cell morphology in human HT1080 cells after 72 hrs; type: functional, cell-based
Mus musculus [9] = assay: Toxicity in ICR mouse assessed as body weight at 10 mg/kg, ip after 8 days; type: organism-based; set-up: dose 10 mg/kg, route intraperitoneal; details: in vivo, 192 h
CCRF S-180 [10] = assay: Antitumor activity against S180 cells inoculated in ICR mouse assessed as inhibition of tumor growth at 10 mg/kg, ip after 8 days; type: functional; details: CCRF S-180, ip, 192 h, route intraperitoneal
MG-22A [11] = assay: Induction of apoptosis in mouse MG22A cells after 72 hrs; type: functional, cell-based
Mus musculus [12] = assay: Toxicity in ICR mouse assessed as body weight at 2 mg/kg, ip after 2 days; type: organism-based; set-up: dose 2 mg/kg, route intraperitoneal; details: in vivo, 48 h
CCRF S-180 [13] = assay: Antitumor activity against S180 cells inoculated in ICR mouse assessed as inhibition of tumor growth at 2 mg/kg, ip after 2 days; type: functional; details: CCRF S-180, ip, 48 h, route intraperitoneal
HT-1080 [14] = assay: Induction of apoptosis in human HT1080 cells after 72 hrs; type: functional, cell-based

Compound | Activity (HT-1080 [1]) | Activity (HT-1080 [2]) | Activity (Mus musculus [3]) | inhibition in vivo at 10 mg/kg (CCRF S-180 [4]) | Activity (MG-22A [5]) | CC50 (MG-22A [6]) | CC50 at 72 h [7] | Activity (HT-1080 [8]) | Activity (Mus musculus [9]) | CC50 (HT-1080 [2]) | inhibition in vivo at 10 mg/kg (CCRF S-180 [10]) | Activity (CCRF S-180 [4]) | Activity (MG-22A [11]) | Activity (Mus musculus [12]) | inhibition in vivo at 2 mg/kg (CCRF S-180 [13]) | Activity (HT-1080 [14])
Cc1nn[se]c1C(=O)N(C(C)C)C(C)C | 29% | Not toxic | 0% | -32% | 200% | 31 µg/mL (≈ 113 µM) | 718 µg/mL (≈ 2620 µM) | – | – | – | – | – | – | – | – | –
Cc1nn[se]c1C(=O)N[C@@H](C)c1ccccc1 | 300% | – | – | – | 200% | 32 µg/mL (≈ 109 µM) | 407 µg/mL (≈ 1380 µM) | Active | 0% | 31 µg/mL (≈ 105 µM) | -23% | – | – | – | – | –
Cc1nn[se]c1C(=O)N1CCOCC1 | 11% | Not toxic | 8% | – | 250% | 34 µg/mL (≈ 131 µM) | 280 µg/mL (≈ 1080 µM) | – | – | – | – | Non-toxic | – | – | – | –
Cc1nn[se]c1C(=O)N1CCCCC1 | 100% | – | 8% | 71% | 400% | 27 µg/mL (≈ 105 µM) | 123 µg/mL (≈ 476 µM) | – | – | 31 µg/mL (≈ 120 µM) | – | – | – | – | – | –
Cc1nn[se]c1C(=O)N1CCCC1 | 350% | – | 23% | 85% | 350% | 33 µg/mL (≈ 135 µM) | 214 µg/mL (≈ 876 µM) | – | – | 19 µg/mL (≈ 77.8 µM) | – | – | Active | – | – | –
Cc1nn[se]c1C(=O)N[C@H](C)c1ccccc1 | 17% | – | 3% | 20% | 400% | 29 µg/mL (≈ 98.6 µM) | 195 µg/mL (≈ 663 µM) | inactive | – | 100 µg/mL (≈ 340 µM) | – | – | – | – | – | –
Cc1nn[se]c1C(=O)N(C)C | 10% | Not toxic | – | – | 63% | 35 µg/mL (≈ 160 µM) | 351 µg/mL (≈ 1610 µM) | – | – | – | – | – | Active | 17% | 58% | Active
